Where two headings read alike, the source gives them in different places. Numbered stars: 1 amine (or outer) side, 2 acyl side, 3 side chain; on linkers, the order of the positions; unused ones are H or OH. Square brackets hold non-standard residues; d marks the D form. Peptide text beside a SMILES is read from it. X1 = O=C([C@H]1[C@@H](c2ccccc2)CCN1[*:1])[*:2]; X2 = O=C([C@@H]1[C@H](c2ccccc2)CCN1[*:1])[*:2]; dAla(4-thiazolyl) = N[C@H](Cc1cscn1)C(=O)O; Tic(7-OH) = O=C(O)[C@@H]1Cc2ccc(O)cc2CN1; Phe(4-NH2) = Nc1ccc(C[C@H](N)C(=O)O)cc1; Phe(4-F) = N[C@@H](Cc1ccc(F)cc1)C(=O)O; hCha = N[C@@H](CCC1CCCCC1)C(=O)O
How the values were obtained:
[1] = In vitro bovine BBB cell-based model transport assay; settings: bovine, 200 μM peptide in Ringer-HEPES, 2 h, 37 °C, mean ± SD, n = 3
Procedure: (§1) Peptides were evaluated through an in vitro bovine BBB cell-based model (Fig. 2a). Transport (T) and permeability (Papp) for all peptides were quantified by RP-HPLC-PDA and by MALDI-TOF MS (Fig. 2). The former method determined transport by applying the ratio between the peak areas integrated in the chromatograms from the acceptor and donor wells, further corrected by the volumes injected and the volumes contained in each well (see Eq. 1). The latter entails the spiking of the heavy version of the peptide as internal standard into an aliquot of the light peptide (Fig. 2b). The MS intensity for light/heavy ratios for acceptor and donor wells is representative of the relative amount of peptide in each well when corrected by their volume (detailed in Eq. 2).1 T=QAI(t)/QDI(t0)×VDI/VAI×VAW/VDW×100(%) where QAI(t) and QDI(t0) account for the integrated area in the HPLC chromatograms of acceptor (at time t = 2 h) and donor (at time t0 = 0) wells, respectively; VDI and VAI are the injected volumes from donor and acceptor wells, respectively; and VAW and VDW are the volumes in each acceptor and donor well, respectively.2 T=QALight(t)/Q^Heavy/QDLight(t0)/(R×Q^Heavy)×VAW/VDW×100(%) QALight(t)/Q^Heavy accounts for the relative amount of the light peptide in the acceptor well (at time t) compared with a prepared dilution of the heavy isomer (at 2 μM). QDLight(t0)/(R×Q^Heavy) determines the relative amount of light peptide in the donor well (at time t = 0) compared with a prepared dilution of the heavy isomer (at 200 μM; i.e. in our case R = 100).
(§2) In general, transport (see Eq. 3) can be described by the total amount of peptide in the acceptor well at time t, QA(t) , divided by the initial amount in the donor well, QD(t0) , while apparent permeability (Papp), widely used in the literature, normalizes transport by the transwell area, volume in donor well and time (see Eq. 4). […] In these cases, an approximate value was determined.
(§3) This assay was an adapted model[5] of the method previously published by Gaillard and de Boer[49]. Before performing the assay, TEER was measured in all transwells (TEER > 100 Ω·cm^2). […] The apical compartment was filled with 200 μL of the solution containing the peptide, and 800 µL of Ringer-HEPES was poured into the basal well. Three replicates of each peptide were assayed. The plate was left for 2 h in the incubator at 37 °C. Finally, the samples were collected and analyzed or frozen until analysis. LY fluorescence was measured in a 96-well plate with a Fluoroskan Ascent Microplate Fluorometer (Thermo Fisher Scientific). Two parameters were determined, namely transport (T (%)) and apparent permeability (Papp(cm/s)). RP-HPLC-PDA (220 nm) and MALDI-TOF MS were used to determine the amounts of peptide in each sample.
(§4) Transport was calculated using Eq. 2. […] Peak-picking and determination of peak area ratios was performed using Data Explorer version 4.5 (Applied Biosystems).

[2] = tested on: in vitro bovine BBB cell-based model; assay: as above; settings: for Transport (%) MALDI-TOF MS / Transport (%) RP-HPLC-PDA: 200 μM peptide in Ringer-HEPES, 2 h, 37 °C, mean ± SD, n = 3; for Transport (%) MALDI-TOF MS: quantified by MALDI-TOF MS with heavy internal standard; for Transport (%) RP-HPLC-PDA: quantified by RP-HPLC-PDA (220 nm), some values approximate (below LOQ); for Increase in transport compared to the parent peptide (1 L): bovine BBB model, MALDI-TOF MS quantification, transport normalized by parent peptide 1 L
Procedure: as §1, §2, §3, §4

[3] = tested on: in vitro human model of the BBB (brain-like endothelial cells from human cord blood-derived hematopoietic stem cells co-cultured with bovine pericytes); assay: In vitro human BBB cell-based model transport assay
Procedure: The aforementioned peptides were assayed as in the other BBB model using either Ringer-HEPES buffer (the one commonly used in these assays) or supplemented ECM medium. The use of medium in this assay allows (1) the extension of the incubation time and (2) the use of more similar conditions to those found physiologically.
Endothelial cells and pericytes were defrosted in gelatin-coated Petri dishes (Corning). Pericytes and endothelial cells were cultured in DMEM pH 6.8 or in supplemented endothelial cell growth medium (Sciencells), respectively. After 48 h, pericytes (50,000 cells/well) and endothelial cells (80,000 cells/well) were seeded in gelatin-coated 12-well plates or in Matrigel-coated 12-well Transwell inserts (Corning), respectively. Medium was changed every 2–3 days and assays were performed 7–8 days after seeding. […] LY fluorescence was measured in a 96-well plate with a Fluoroskan Ascent Microplate Fluorometer (Thermo Fisher Scientific). Compounds were dissolved in Ringer-HEPES at a concentration of 200 µM. Then, 500 µL of the compound and 1,500 µL of Ringer-HEPES alone were introduced in the apical or in the basolateral compartments, respectively. The plates were set on at 37 °C for 2 h. The solutions from both compartments were then recovered and quantified by HPLC and identified by MALDI-TOF.

[4] = Peptide stability in human serum; format: in vitro ADME; settings: for Protease resistance (in human serum): result in words
Procedure: Peptides were dissolved in 1 mL of HBSS buffer/human serum (from human male AB plasma; Sigma-Aldrich) 10:90 (v/v) at a final concentration of 200 µM and incubated at 37 °C for 24 h. Aliquots of 50 µL were extracted at a range of incubation times and treated with 200 µL of cold CH3OH (4 °C) to precipitate serum proteins. After 30 min, samples were centrifuged at 13,000 g and 4 °C for 30 min. Supernatants were analyzed by RP-HPLC-PDA and MALDI-TOF MS, using similar procedures as for the quantification of the in vitro cell-based BBB model.

[5] = Parallel artificial membrane permeability assay (PAMPA); format: in vitro ADME; settings: pig, porcine brain polar lipid extract
Procedure: Passive diffusion was ruled out as the mechanism responsible for transport when the peptides (1 L, 6D, 7 − D and 8D) were assayed by PAMPA, an in vitro physico-chemical model where the transport by passive diffusion of compounds is evaluated through a membrane containing the lipid composition of interest (in our case, a porcine brain polar lipid extract (BPLE) to mimic the BBB lipid barrier). […] Note that when these values fall below 2.0 × 10^−6 cm/s compounds are considered to be poorly transported by passive diffusion.
The PAMPA assay was used to exclude passive diffusion capacity across the BBB. The standard parameter that quantifies transport independently of time and concentrations is effective permeability, Pe=−218.3/tLog(1−2CA(t)/CD(t0))×10^−6cm/s; where t is the running time (4 h), CA (t) is the concentration of the compound in the acceptor well at time t, and CD (t0) is the compound concentration in the donor well before running the PAMPA assay (t0 = 0 h). […] The protocol followed was the same as that previously used by Arranz-Gibert et al.[1]. Permeability is considered excellent with values >4.0 × 10^−6) cm/s, uncertain between 2.0 × 10^−6 and 4.0 × 10^−6 cm/s, and poor with values below 2.0 × 10^−6) cm/s[41].

[6] = Papp MALDI-TOF MS, quantified by MALDI-TOF MS with heavy internal standard
[7] = Papp RP-HPLC-PDA, quantified by RP-HPLC-PDA (220 nm)
[8] = 4 h, n = 3, values are Pe · 10^6, read-out: Pe · 10^6 (effective permeability)
[9] = read-out: Permeability values (PAMPA), bound in the text

Papp at 2 h, 200 μM [1, 6] [×10⁻⁶ cm/s] | Papp at 2 h, 200 μM [1, 7] [×10⁻⁶ cm/s] | Transport (%) MALDI-TOF MS [2] [%] | Transport (%) RP-HPLC-PDA [2] [%] | Compound | Increase in transport compared to the parent peptide (1 L) [2] | Transport relative to the parent peptide 1 L (HAI), buffer ([3]; human BBB model, Ringer-HEPES buffer) | Transport relative to the parent peptide 1 L (HAI), medium ([3]; human BBB model, supplemented ECM medium) | Protease resistance (in human serum) [4] | Papp at 4 h [5, 8] [×10⁻⁶ cm/s] | Papp at 4 h [5, 9] [×10⁻⁶ cm/s] | Papp of Lucifer yellow (control) ([2]; 20 μM Lucifer yellow lithium salt as control in Ringer-HEPES) | Papp of Lucifer Yellow (internal control) ([3]; 50 µM Lucifer Yellow as internal control) | half-life at 200 µM ([4]; male, HBSS buffer/human serum 10:90 (v/v), 200 µM, 37 °C, 24 h, non-linear regression, read-out: t1/2 in human serum (converted)) [h]
2.6 ± 1.3 | 2.9 ± 1.3 | 3.1 ± 1.6 | 3.4 ± 1.6 | CC[C@H](C)[C@H](NC(=O)[C@H](C)NC(=O)[C@H](Cc1c[nH]cn1)NC(C)=O)C(=O)N[C@@H](Cc1ccc(F)cc1)C(=O)N1CCC[C@H]1C(=O)N[C@@H](CCCNC(=N)N)C(=O)N[C@@H](Cc1c[nH]cn1)C(N)=O [Peptide 5L, Ac-HAIxPRH-NH2] (Ac-HAI[Phe(4-F)]PRH-NH2) | – | – | – | – | – | – | – | – | –
1.8 ± 0.4 | 1.6 ± 0.8 | 2.1 ± 0.5 | 2.0 ± 0.9 | CC[C@H](C)[C@H](NC(=O)[C@H](C)NC(=O)[C@H](Cc1c[nH]cn1)NC(C)=O)C(=O)N[C@@H](Cc1ccc(N)cc1)C(=O)N1CCC[C@H]1C(=O)N[C@@H](CCCNC(=N)N)C(=O)N[C@@H](Cc1c[nH]cn1)C(N)=O [Peptide 4L, Ac-HAIxPRH-NH2] (Ac-HAI[Phe(4-NH2)]PRH-NH2) | – | – | – | – | – | – | – | – | –
2.4 ± 1 | 3.7 ± 0.4 | 2.9 ± 1.2 | 4.4 ± 0.5 | CC[C@@H](C)[C@@H](NC(=O)[C@@H](Cc1ccc(O)cc1)NC(=O)[C@H]1CCCN1C(=O)[C@@H](CCCNC(=N)N)NC(=O)[C@@H](Cc1cscn1)NC(C)=O)C(=O)N[C@H](C)C(=O)N[C@H](Cc1c[nH]cn1)C(N)=O [Peptide 9D, Ac-xrpyiah-NH2] (Ac-[dAla(4-thiazolyl)][dR][dP][dY][dI][dA][dH]-NH2) | – | – | – | – | – | – | – | – | –
2.1 ± 1 | 1.7 ± 0.6 | 2.5 ± 1.2 | 2.0 ± 0.8 | CC[C@H](C)[C@H](NC(=O)[C@H](C)NC(=O)[C@H](Cc1c[nH]cn1)NC(C)=O)C(=O)N1Cc2cc(O)ccc2C[C@H]1C(=O)N1CCC[C@H]1C(=O)N[C@@H](CCCNC(=N)N)C(=O)N[C@@H](Cc1c[nH]cn1)C(N)=O [Peptide 3L, Ac-HAIxPRH-NH2] (Ac-HAI[Tic(7-OH)]PRH-NH2) | – | – | – | – | – | – | – | – | –

More lines, now with the values behind:

Compound | Papp at 2 h, 200 μM [1, 6] [×10⁻⁶ cm/s] | Papp at 2 h, 200 μM [1, 7] [×10⁻⁶ cm/s] | Transport (%) MALDI-TOF MS [2] [%] | Transport (%) RP-HPLC-PDA [2] [%] | Increase in transport compared to the parent peptide (1 L) [2] | Transport relative to the parent peptide 1 L (HAI), buffer ([3]; human BBB model, Ringer-HEPES buffer) | Transport relative to the parent peptide 1 L (HAI), medium ([3]; human BBB model, supplemented ECM medium) | Protease resistance (in human serum) [4] | Papp at 4 h [5, 8] [×10⁻⁶ cm/s] | Papp at 4 h [5, 9] [×10⁻⁶ cm/s] | Papp of Lucifer yellow (control) ([2]; 20 μM Lucifer yellow lithium salt as control in Ringer-HEPES) | Papp of Lucifer Yellow (internal control) ([3]; 50 µM Lucifer Yellow as internal control) | half-life at 200 µM ([4]; male, HBSS buffer/human serum 10:90 (v/v), 200 µM, 37 °C, 24 h, non-linear regression, read-out: t1/2 in human serum (converted)) [h]
CC[C@@H](C)[C@@H](NC(=O)[C@@H](Cc1ccc(O)cc1)NC(=O)[C@H]1[C@@H](c2ccccc2)CCN1C(=O)[C@@H](CCCNC(=N)N)NC(=O)[C@@H](Cc1c[nH]cn1)NC(C)=O)C(=O)N[C@H](C)C(=O)N[C@H](Cc1c[nH]cn1)C(N)=O [Peptide 7-D, Ac-hrxyiah-NH2] (Ac-[dH][dR][X1][dY][dI][dA][dH]-NH2) | 6 ± 2 | 4.8 ± 1.5 | 7 ± 3 | 5.7 ± 1.8 | two-fold | around 1.5 fold | eight- | high resistance to protease degradation | 0.33 | < 0.4 | – | – | –
CC[C@@H](C)[C@@H](NC(=O)[C@@H](Cc1ccc(O)cc1)NC(=O)[C@@H]1[C@H](c2ccccc2)CCN1C(=O)[C@@H](CCCNC(=N)N)NC(=O)[C@@H](Cc1c[nH]cn1)NC(C)=O)C(=O)N[C@H](C)C(=O)N[C@H](Cc1c[nH]cn1)C(N)=O [7+D, Ac-hrxyiah-NH2] (Ac-[dH][dR][X2][dY][dI][dA][dH]-NH2) | 5.7 ± 1.9 | 5.7 ± 1 | 7 ± 2 | 6.8 ± 1.2 | two-fold | – | – | – | – | – | – | – | –
CC[C@@H](C)[C@@H](NC(=O)[C@@H](Cc1ccc(O)cc1)NC(=O)[C@H]1CCCCN1C(=O)[C@@H](CCCNC(=N)N)NC(=O)[C@@H](Cc1c[nH]cn1)NC(C)=O)C(=O)N[C@H](C)C(=O)N[C@H](Cc1c[nH]cn1)C(N)=O [Peptide 8D, Ac-hrxyiah-NH2] | 6.3 ± 0.8 | 6.1 ± 0.8 | 7.5 ± 1.0 | 7.2 ± 0.9 | two-fold | – | – | high resistance to protease degradation | 0.34 | < 0.4 | – | – | –
CC(=O)N[C@@H](Cc1c[nH]cn1)C(=O)N[C@@H](C)C(=O)N[C@@H](CCC1CCCCC1)C(=O)N[C@@H](Cc1ccc(O)cc1)C(=O)N1CCC[C@H]1C(=O)N[C@@H](CCCNC(=N)N)C(=O)N[C@@H](Cc1c[nH]cn1)C(N)=O [Peptide 2L, Ac-HAxYPRH-NH2] (Ac-HA[hCha]YPRH-NH2) | 2.8 ± 0.6 | 3.3 ± 0.7 | 3.4 ± 0.7 | 3.9 ± 0.9 | – | – | – | – | – | – | – | – | –
Lucifer yellow (LY) lithium salt [reference compound] | – | – | – | – | – | – | – | – | – | – | < 17 ·10^−6 cm/s | < 15 ·10^−6 cm/s | –
CC[C@H](C)[C@H](NC(=O)[C@H](C)NC(=O)[C@H](Cc1c[nH]cn1)NC(C)=O)C(=O)N[C@@H](Cc1ccc(O)cc1)C(=O)N1CCC[C@H]1C(=O)N[C@@H](CCCNC(=N)N)C(=O)N[C@@H](Cc1c[nH]cn1)C(N)=O [Peptide 1L, Ac-HAIYPRH-NH2] | 3.2 ± 1.2 | 2.5 ± 1.1 | 3.8 ± 1.4 | 2.9 ± 1.4 | – | – | – | – | 0.18 | < 0.4 | – | – | 3.3
CC[C@@H](C)[C@@H](NC(=O)[C@@H](Cc1ccc(O)cc1)NC(=O)[C@H]1CCCN1C(=O)[C@@H](CCCNC(=N)N)NC(=O)[C@@H](Cc1c[nH]cn1)NC(C)=O)C(=O)N[C@H](C)C(=O)N[C@H](Cc1c[nH]cn1)C(N)=O [Peptide 6D, Ac-hrpyiah-NH2] | 2.6 ± 0.7 | 4.5 ± 1.5 | 3.1 ± 0.9 | 5.3 ± 1.8 | – | – | – | – | 0.34 | < 0.4 | – | – | –
